Results taken from patent US20240116998A1, “GLUCAGON-LIKE PEPTIDE-1 RECEPTOR ANTAGONISTS” (INDIANA UNIVERSITY RESEARCH AND TECHNOLOGY CORPORATION, priority 2021, published 2024).
Converted amounts (≈) assume the structure as drawn. Non-standard residues stand in square brackets, D forms with d. Residues, ends and D or L forms follow the SMILES beside them. *: point of attachment. Palmitoyl = CCCCCCCCCCCCCCCC(=O)*; Aib = CC(C)(N)C(=O)O

Assay: Solubility of peptides in buffer
Type: physicochemical
Settings: for Solubility 80 mM AmBicarb pH 7.7: Table 3, unit not given; for solubility: pH 7.4

| SMILES | Solubility 80 mM AmBicarb pH 7.7 | solubility [µg/mL] |
| --- | --- | --- |
| CCCCCCCCCCCCCCCC(=O)NCCCC[C@H](NC(=O)[C@H](CO)NC(=O)[C@@H]1CCCN1C(=O)[C@@H]1CCCN1C(=O)[C@@H]1CCCN1C(=O)[C@H](C)NC(=O)CNC(=O)[C@H](CO)NC(=O)[C@H](CO)NC(=O)[C@@H]1CCCN1C(=O)CNC(=O)CNC(=O)[C@H](CCCNC(=N)N)NC(=O)[C@@H](NC(=O)[C@H](CC(C)C)NC(=O)[C@H](Cc1c[nH]c2ccccc12)NC(=O)[C@H](CCC(=O)O)NC(=O)[C@@H](NC(=O)[C@H](Cc1ccccc1)NC(=O)[C@H](CCC(=O)O)NC(=O)[C@H](CCCNC(=N)N)NC(=O)[C@@H](NC(=O)[C@H](C)NC(=O)[C@H](CCC(=O)O)NC(=O)[C@H](CCC(=O)O)NC(=O)[C@H](CCC(=O)O)NC(=O)[C@H](CC(C)C)NC(=O)[C@H](Cc1ccc(O)cc1)NC(=O)[C@H](CCCNC(=N)N)NC(=O)[C@H](CO)NC(=O)[C@@H](NC(=O)[C@@H](N)CC(=O)O)C(C)C)C(C)C)[C@@H](C)CC)C(C)C)C(N)=O [SEQ ID NO: 75] (H-DVSRYLEEEAVREFIEWLVRGGPSSGAPPPSK(Palmitoyl)-NH2) | 18.5 |  |
| CCCCCCCCCCCCCCCC(=O)NCCCC[C@H](NC(=O)[C@H](CO)NC(=O)[C@@H]1CCCN1C(=O)[C@@H]1CCCN1C(=O)[C@@H]1CCCN1C(=O)[C@H](C)NC(=O)CNC(=O)[C@H](CO)NC(=O)[C@H](CO)NC(=O)[C@@H]1CCCN1C(=O)CNC(=O)CNC(=O)[C@H](CCCCN)NC(=O)[C@@H](NC(=O)C(C)(C)NC(=O)[C@H](Cc1c[nH]c2ccccc12)NC(=O)[C@H](C)NC(=O)[C@@H](NC(=O)[C@H](Cc1ccccc1)NC(=O)[C@H](CCC(=O)O)NC(=O)[C@H](CCCNC(=N)N)NC(=O)[C@@H](NC(=O)[C@H](C)NC(=O)[C@H](CCC(N)=O)NC(=O)[C@H](CCC(=O)O)NC(=O)[C@H](CCC(=O)O)NC(=O)[C@H](CC(C)C)NC(=O)[C@H](Cc1ccc(O)cc1)NC(=O)[C@H](CO)NC(=O)[C@H](CO)NC(=O)[C@@H](NC(=O)[C@@H](N)CC(=O)O)C(C)C)C(C)C)[C@@H](C)CC)C(C)C)C(N)=O [SEQ ID NO: 44] (H-DVSSYLEEQAVREFIAW[Aib]VKGGPSSGAPPPSK(Palmitoyl)-NH2; N-terminus assumed) |  | 100 (≈ 27.7 µM) |
| CCCCCCCCCCCCCCCC(=O)NCCCC[C@H](NC(=O)[C@H](CO)NC(=O)[C@@H]1CCCN1C(=O)[C@@H]1CCCN1C(=O)[C@@H]1CCCN1C(=O)[C@H](C)NC(=O)CNC(=O)[C@H](CO)NC(=O)[C@H](CO)NC(=O)[C@@H]1CCCN1C(=O)CNC(=O)CNC(=O)C(C)(C)NC(=O)[C@@H](NC(=O)[C@H](CCCCN)NC(=O)[C@H](Cc1c[nH]c2ccccc12)NC(=O)[C@H](C)NC(=O)[C@@H](NC(=O)[C@H](Cc1ccccc1)NC(=O)[C@H](CCC(=O)O)NC(=O)[C@H](CCCNC(=N)N)NC(=O)[C@@H](NC(=O)[C@H](C)NC(=O)[C@H](CCC(N)=O)NC(=O)[C@H](CCC(=O)O)NC(=O)[C@H](CCC(=O)O)NC(=O)[C@H](CC(C)C)NC(=O)[C@H](Cc1ccc(O)cc1)NC(=O)[C@H](CO)NC(=O)[C@H](CO)NC(=O)[C@@H](NC(=O)[C@@H](N)CC(=O)O)C(C)C)C(C)C)[C@@H](C)CC)C(C)C)C(N)=O [SEQ ID NO: 82] |  | 100 (≈ 27.7 µM) |
| CCCCCCCCCCCCCCCC(=O)NCCCC[C@H](NC(=O)[C@H](CO)NC(=O)[C@@H]1CCCN1C(=O)[C@@H]1CCCN1C(=O)[C@@H]1CCCN1C(=O)[C@H](C)NC(=O)CNC(=O)[C@H](CO)NC(=O)[C@H](CO)NC(=O)[C@@H]1CCCN1C(=O)CNC(=O)CNC(=O)[C@H](CCCCN)NC(=O)[C@@H](NC(=O)[C@H](CC(C)C)NC(=O)[C@H](Cc1c[nH]c2ccccc12)NC(=O)[C@H](C)NC(=O)[C@@H](NC(=O)[C@H](Cc1ccccc1)NC(=O)[C@H](CCC(=O)O)NC(=O)[C@H](CCCNC(=N)N)NC(=O)[C@@H](NC(=O)[C@H](C)NC(=O)[C@H](CCC(N)=O)NC(=O)C(C)(C)NC(=O)[C@H](CCC(=O)O)NC(=O)[C@H](CC(C)C)NC(=O)[C@H](Cc1ccc(O)cc1)NC(=O)[C@H](CO)NC(=O)[C@H](CO)NC(=O)[C@@H](NC(=O)[C@@H](N)CC(=O)O)C(C)C)C(C)C)[C@@H](C)CC)C(C)C)C(N)=O [SEQ ID NO: 84] (H-DVSSYLE[Aib]QAVREFIAWLVKGGPSSGAPPPSK(Palmitoyl)-NH2; N-terminus assumed) |  | 200 (≈ 55.6 µM) |
| CCCCCCCCCCCCCCCC(=O)NCCCC[C@H](NC(=O)[C@H](CO)NC(=O)[C@@H]1CCCN1C(=O)[C@@H]1CCCN1C(=O)[C@@H]1CCCN1C(=O)[C@H](C)NC(=O)CNC(=O)[C@H](CO)NC(=O)[C@H](CO)NC(=O)[C@@H]1CCCN1C(=O)CNC(=O)CNC(=O)[C@H](CCCNC(=N)N)NC(=O)[C@@H](NC(=O)[C@H](CC(C)C)NC(=O)[C@H](Cc1c[nH]c2ccccc12)NC(=O)[C@H](C)NC(=O)[C@@H](NC(=O)[C@H](Cc1ccccc1)NC(=O)[C@H](CCC(=O)O)NC(=O)[C@H](CCCNC(=N)N)NC(=O)[C@@H](NC(=O)[C@H](C)NC(=O)[C@H](CCC(=O)O)NC(=O)[C@H](CCC(=O)O)NC(=O)[C@H](CCC(=O)O)NC(=O)[C@H](CC(C)C)NC(=O)[C@H](Cc1ccc(O)cc1)NC(=O)[C@H](CO)NC(=O)[C@H](CO)NC(=O)[C@@H](NC(=O)[C@@H](N)CC(=O)O)C(C)C)C(C)C)[C@@H](C)CC)C(C)C)C(N)=O [SEQ ID NO: 71] (H-DVSSYLEEEAVREFIAWLVRGGPSSGAPPPSK(Palmitoyl)-NH2; N-terminus assumed) | >20 |  |
| CCCCCCCCCCCCCCCC(=O)NCCCC[C@H](NC(=O)[C@H](CO)NC(=O)[C@@H]1CCCN1C(=O)[C@@H]1CCCN1C(=O)[C@@H]1CCCN1C(=O)[C@H](C)NC(=O)CNC(=O)[C@H](CO)NC(=O)[C@H](CO)NC(=O)[C@@H]1CCCN1C(=O)CNC(=O)CNC(=O)[C@H](CCCCN)NC(=O)[C@@H](NC(=O)[C@H](CC(C)C)NC(=O)[C@H](Cc1c[nH]c2ccccc12)NC(=O)[C@H](C)NC(=O)[C@@H](NC(=O)[C@H](Cc1ccccc1)NC(=O)[C@H](CCC(=O)O)NC(=O)[C@H](CCCNC(=N)N)NC(=O)C(C)(C)NC(=O)[C@H](C)NC(=O)[C@H](CCC(N)=O)NC(=O)[C@H](CCC(=O)O)NC(=O)[C@H](CCC(=O)O)NC(=O)[C@H](CC(C)C)NC(=O)[C@H](Cc1ccc(O)cc1)NC(=O)[C@H](CO)NC(=O)[C@H](CO)NC(=O)[C@@H](NC(=O)[C@@H](N)CC(=O)O)C(C)C)[C@@H](C)CC)C(C)C)C(N)=O [SEQ ID NO: 45] (H-DVSSYLEEQA[Aib]REFIAWLVKGGPSSGAPPPSK(Palmitoyl)-NH2; N-terminus assumed) |  | 400 (≈ 110 µM) |
| CCCCCCCCCCCCCCCC(=O)NCCCC[C@H](NC(=O)[C@H](CO)NC(=O)[C@@H]1CCCN1C(=O)[C@@H]1CCCN1C(=O)[C@@H]1CCCN1C(=O)[C@H](C)NC(=O)CNC(=O)[C@H](CO)NC(=O)[C@H](CO)NC(=O)[C@@H]1CCCN1C(=O)CNC(=O)CNC(=O)[C@H](CCCCN)NC(=O)C(C)(C)NC(=O)[C@H](CC(C)C)NC(=O)[C@H](Cc1c[nH]c2ccccc12)NC(=O)[C@H](C)NC(=O)[C@@H](NC(=O)[C@H](Cc1ccccc1)NC(=O)[C@H](CCC(=O)O)NC(=O)[C@H](CCCNC(=N)N)NC(=O)[C@@H](NC(=O)[C@H](C)NC(=O)[C@H](CCC(N)=O)NC(=O)[C@H](CCC(=O)O)NC(=O)[C@H](CCC(=O)O)NC(=O)[C@H](CC(C)C)NC(=O)[C@H](Cc1ccc(O)cc1)NC(=O)[C@H](CO)NC(=O)[C@H](CO)NC(=O)[C@@H](NC(=O)[C@@H](N)CC(=O)O)C(C)C)C(C)C)[C@@H](C)CC)C(N)=O [SEQ ID NO: 81] (H-DVSSYLEEQAVREFIAWL[Aib]KGGPSSGAPPPSK(Palmitoyl)-NH2; N-terminus assumed) |  | 1600 (≈ 441 µM) |
| CCCCCCCCCCCCCCCC(=O)NCCCC[C@H](NC(=O)[C@H](CO)NC(=O)[C@@H]1CCCN1C(=O)[C@@H]1CCCN1C(=O)[C@@H]1CCCN1C(=O)[C@H](C)NC(=O)CNC(=O)[C@H](CO)NC(=O)[C@H](CO)NC(=O)[C@@H]1CCCN1C(=O)CNC(=O)CNC(=O)[C@H](CCCNC(=N)N)NC(=O)[C@@H](NC(=O)[C@H](CC(C)C)NC(=O)[C@H](Cc1c[nH]c2ccccc12)NC(=O)[C@H](CCC(=O)O)NC(=O)[C@@H](NC(=O)[C@H](Cc1ccccc1)NC(=O)[C@H](CCC(=O)O)NC(=O)[C@H](CCCNC(=N)N)NC(=O)[C@@H](NC(=O)[C@H](C)NC(=O)[C@H](CCC(=O)O)NC(=O)[C@H](CCC(=O)O)NC(=O)[C@H](CCC(=O)O)NC(=O)[C@H](CC(C)C)NC(=O)[C@H](Cc1ccc(O)cc1)NC(=O)[C@H](CO)NC(=O)[C@H](CO)NC(=O)[C@@H](NC(=O)[C@@H](N)CC(=O)O)C(C)C)C(C)C)[C@@H](C)CC)C(C)C)C(N)=O [SEQ ID NO: 72] (H-DVSSYLEEEAVREFIEWLVRGGPSSGAPPPSK(Palmitoyl)-NH2; N-terminus assumed) | >20 |  |
| CCCCCCCCCCCCCCCC(=O)NCCCC[C@H](NC(=O)[C@H](CO)NC(=O)[C@@H]1CCCN1C(=O)[C@@H]1CCCN1C(=O)[C@@H]1CCCN1C(=O)[C@H](C)NC(=O)CNC(=O)[C@H](CO)NC(=O)[C@H](CO)NC(=O)[C@@H]1CCCN1C(=O)CNC(=O)CNC(=O)[C@H](CCCCN)NC(=O)[C@@H](NC(=O)[C@H](CC(C)C)NC(=O)[C@H](Cc1c[nH]c2ccccc12)NC(=O)[C@H](C)NC(=O)[C@@H](NC(=O)[C@H](Cc1ccccc1)NC(=O)[C@H](CCC(=O)O)NC(=O)[C@H](CCCNC(=N)N)NC(=O)[C@@H](NC(=O)C(C)(C)NC(=O)[C@H](CCC(N)=O)NC(=O)[C@H](CCC(=O)O)NC(=O)[C@H](CCC(=O)O)NC(=O)[C@H](CC(C)C)NC(=O)[C@H](Cc1ccc(O)cc1)NC(=O)[C@H](CO)NC(=O)[C@H](CO)NC(=O)[C@@H](NC(=O)[C@@H](N)CC(=O)O)C(C)C)C(C)C)[C@@H](C)CC)C(C)C)C(N)=O [SEQ ID NO: 46] (H-DVSSYLEEQ[Aib]VREFIAWLVKGGPSSGAPPPSK(Palmitoyl)-NH2; N-terminus assumed) |  | 700 (≈ 192 µM) |
